# Source: ChEMBL document CHEMBL3407365, “Pachymodulin, a new functional formyl peptide receptor 2 peptidic ligand isolated from frog skin has Janus-like immunomodulatory capacities” (J Med Chem, 2015)
# Active and inactive are the calls of the source. The calls are words filed in the database; no cut-off is given here.
# Experiments:
# Neutrophil [1] = assay: Induction of ERK1/2-mediated directional migration in human neutrophils assessed as fluorescence of calcein at 10 uM after 45 mins by chemotaxis assay in presence of PD98059 MEK1/2 inhibitor; type: functional, cell-based
# Neutrophil [2] = assay: Induction of ERK1/2-mediated directional migration in human neutrophils assessed as fluorescence of calcein at 10 uM after 45 mins by chemotaxis assay in presence of SB202190 MAPK inhibitor; type: functional, cell-based
# Neutrophil [3] = assay: Induction of ERK1/2-mediated directional migration in human neutrophils assessed as enzyme phosphorylation at 10 uM by chemotaxis assay; type: functional, cell-based; conditions: TDE = time-dependent effect
# Neutrophil [4] = assay: Induction of migration in human neutrophils at 10 uM after 45 mins by chemotaxis assay in presence of preincubation of 10 uM fMLP; type: functional, cell-based
# Neutrophil [5] = assay: Induction of migration in human neutrophils at 10 uM after 45 mins by chemotaxis assay in presence of preincubation of 0.1 uM fMLP; type: functional, cell-based
# Neutrophil [6] = assay: Induction of migration in human neutrophils preincubated at 10 uM after 45 mins by chemotaxis assay in presence of 10 uM fMLP; type: functional, cell-based
# Neutrophil [7] = assay: Induction of migration in human neutrophils preincubated at 10 uM after 45 mins by chemotaxis assay in presence of 0.1 uM fMLP; type: functional, cell-based
# [8] = target: T1, N-formyl peptide receptor 2 (Homo sapiens) (UniProt P25090); assay: Binding affinity to human FPR2 receptor expressed in HEK cells assessed as heat release at 155 nmol by isothermal titration calorimetry; conditions: HEK293
# T1 sequence (whole entry): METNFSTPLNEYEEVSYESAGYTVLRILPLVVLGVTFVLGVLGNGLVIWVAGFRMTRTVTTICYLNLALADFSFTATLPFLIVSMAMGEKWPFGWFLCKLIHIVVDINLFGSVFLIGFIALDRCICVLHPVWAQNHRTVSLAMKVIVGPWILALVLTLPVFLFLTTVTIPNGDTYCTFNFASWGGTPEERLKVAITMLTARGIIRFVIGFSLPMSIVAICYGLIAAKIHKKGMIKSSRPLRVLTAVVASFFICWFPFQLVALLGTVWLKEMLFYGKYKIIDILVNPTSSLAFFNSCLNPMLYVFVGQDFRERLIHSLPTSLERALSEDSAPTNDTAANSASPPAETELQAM
# [9] = target: T1, N-formyl peptide receptor 2 (Homo sapiens); assay: Induction of human FPR2 receptor-expressed HEK cell migration at 10 uM; conditions: HEK293
# [10] = target: T2, Formyl peptide receptor-related sequence 1 (Mus musculus) (UniProt O08790); assay: Induction of mouse FPR2 receptor-expressed HEK cell migration at 10 uM; conditions: HEK293
# T2 sequence (whole entry): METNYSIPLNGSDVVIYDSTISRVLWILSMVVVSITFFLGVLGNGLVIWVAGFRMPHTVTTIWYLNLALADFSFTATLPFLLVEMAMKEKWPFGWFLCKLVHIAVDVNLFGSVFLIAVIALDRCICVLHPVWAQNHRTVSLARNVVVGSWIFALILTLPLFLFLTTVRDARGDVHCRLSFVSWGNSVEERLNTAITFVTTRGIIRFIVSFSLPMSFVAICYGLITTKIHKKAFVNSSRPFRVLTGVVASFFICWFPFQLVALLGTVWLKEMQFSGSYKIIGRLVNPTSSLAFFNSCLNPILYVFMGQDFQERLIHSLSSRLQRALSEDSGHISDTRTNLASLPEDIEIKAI
# HEK293 [11] = assay: Induction of HEK cell migration at 10 uM; type: functional, cell-based; conditions: Homo sapiens
# [12] = target: T1, N-formyl peptide receptor 2 (Homo sapiens); assay: (§1) Induction of calcium release in human FPR2 receptor-expressed HEK cell by cytosolic-free calcium assay; type: functional, cell-based; conditions: HEK293
# [13] = target: T3, N-formyl peptide receptor 2 (Homo sapiens, UniProt P25090); assay: as §1; type: functional, cell-based, HEK293
# T3 sequence (P25090 whole entry): T1 sequence (whole entry)
# [14] = target: T2, Formyl peptide receptor-related sequence 1 (Mus musculus); assay: (§2) Induction of calcium release in mouse FPR2 receptor-expressed HEK cell by cytosolic-free calcium assay; type: functional; conditions: HEK293
# [15] = target: T4, Formyl peptide receptor-related sequence 1 (Mus musculus, UniProt O08790); assay: as §2; type: functional, HEK293
# T4 sequence (O08790 whole entry): T2 sequence (whole entry)
# HEK293 [16] = assay: Induction of calcium release in HEK cell at 10 uM by cytosolic-free calcium assay; type: functional, cell-based; conditions: Homo sapiens
# [17] = target: T1, N-formyl peptide receptor 2 (Homo sapiens); assay: Induction of calcium release in human FPR2 receptor-expressed HEK cell at 10 uM measured after second challenge by cytosolic-free calcium assay; type: functional, cell-based; conditions: HEK293
# [18] = target: T1, N-formyl peptide receptor 2 (Homo sapiens); assay: Induction of calcium release in human FPR2 receptor-expressed HEK cell assessed as calcium release through Cav1.2 channel at 10 uM by cytosolic-free calcium assay in presence of 30 uM ATP; type: functional, cell-based; conditions: HEK293
# Mus musculus [19] = assay: Induction of leukocyte recruitment in C57BL/6 mouse assessed as increase in number of neutrophils in blood at 40 ug, ip tid relative to NaCl treated control; type: functional, organism-based
# Mus musculus [20] = assay: Induction of leukocyte recruitment in C57BL/6 mouse assessed as increase in number of neutrophils in peritoneal cavity at 40 ug, ip tid relative to NaCl treated control; type: functional, organism-based
# Mus musculus [21] = assay: Induction of leukocyte recruitment in C57BL/6 mouse assessed as increase in number of monocytes in blood at 40 ug, ip tid relative to NaCl treated control; type: functional, organism-based
# Mus musculus [22] = assay: Induction of leukocyte recruitment in C57BL/6 mouse assessed as increase in number of monocytes in peritoneal cavity at 40 ug, ip tid relative to NaCl treated control; type: functional, organism-based
# Mus musculus [23] = assay: Induction of leukocyte recruitment in C57BL/6 mouse assessed as increase in number of monocytes in blood at 40 ug, ip tid 4 hr before pretreated with 3% thioglycollate relative to NaCl treated control; type: functional, organism-based
# Mus musculus [24] = assay: Induction of leukocyte recruitment in C57BL/6 mouse assessed as increase in number of monocytes in peritoneal cavity at 40 ug, ip tid 4 hr before pretreated with 3% thioglycollate relative to NaCl treated control; type: functional, organism-based
# Mus musculus [25] = assay: Induction of leukocyte recruitment in C57BL/6 mouse assessed as increase in number of neutrophils in blood at 40 ug, ip tid 4 hr before pretreated with 3% thioglycollate relative to NaCl treated control; type: functional, organism-based
# Mus musculus [26] = assay: Induction of leukocyte recruitment in C57BL/6 mouse assessed as increase in number of neutrophils in peritoneal cavity at 40 ug, ip tid 4 hr before pretreated with 3% thioglycollate relative to NaCl treated control; type: functional, organism-based
# Mus musculus [27] = assay: Induction of leukocyte recruitment in C57BL/6 mouse assessed as increase in number of macrophages in blood at 40 ug, ip tid 4 hr before pretreated with 3% thioglycollate relative to NaCl treated control; type: functional, organism-based
# Escherichia coli [28] = assay: Antibacterial activity against Escherichia coli ATCC 11775; type: functional
# Staphylococcus aureus = assay: Antibacterial activity against Staphylococcus aureus ATCC 25923; type: functional
# [29] = Hemolytic activity in fresh rat erythrocytes assessed as optical density after 60 mins; type: ADME, cell-based; conditions: erythrocyte, 1 h
# Escherichia coli [30] = assay: Induction of membrane disruption in Escherichia coli assessed as bacterial leakage by measuring Gal-ONp hydrolysis; type: organism-based
# Neutrophil [31] = assay: Induction of ERK1/2-mediated directional migration in human neutrophils assessed as fluorescence of calcein at 10 uM after 45 mins by chemotaxis assay; type: functional, cell-based
# Monocyte [32] = assay: Induction of ERK1/2-mediated directional migration in human monocytes assessed as fluorescence of calcein at 10 uM after 45 mins by chemotaxis assay; type: functional, cell-based
# T-cell [33] = assay: Induction of ERK1/2-mediated directional migration in human T cell assessed as fluorescence of calcein at 10 uM after 45 mins by chemotaxis assay; type: functional, cell-based
# Neutrophil [34] = assay: Induction of ERK1/2-mediated directional migration in mouse neutrophils assessed as fluorescence of calcein at 10 uM after 45 mins by chemotaxis assay; type: functional, cell-based
# Monocyte [35] = assay: Induction of ERK1/2-mediated directional migration in mouse monocytes assessed as fluorescence of calcein at 10 uM after 45 mins by chemotaxis assay; type: functional, cell-based
# Neutrophil [36] = assay: Induction of ERK1/2-mediated directional migration in human neutrophils assessed as fluorescence of calcein at 10 uM after 45 mins by chemotaxis assay in presence of natural compound; type: functional, cell-based
# Monocyte [37] = assay: Induction of ERK1/2-mediated directional migration in human monocytes assessed as fluorescence of calcein at 10 uM after 45 mins by chemotaxis assay in presence of natural compound; type: functional, cell-based
# T-cell [38] = assay: Induction of ERK1/2-mediated directional migration in human T cell assessed as fluorescence of calcein at 10 uM after 45 mins by chemotaxis assay in presence of natural compound; type: functional, cell-based
# Neutrophil [39] = assay: Induction of ERK1/2-mediated directional migration in mouse neutrophils assessed as fluorescence of calcein at 10 uM after 45 mins by chemotaxis assay in presence of natural compound; type: functional, cell-based
# Monocyte [40] = assay: Induction of ERK1/2-mediated directional migration in mouse monocytes assessed as fluorescence of calcein at 10 uM after 45 mins by chemotaxis assay in presence of natural compound; type: functional, cell-based
# Neutrophil [41] = assay: Induction of ERK1/2-mediated directional migration in human neutrophils assessed as fluorescence of calcein at 10 uM after 45 mins by chemotaxis assay in presence of pertussis toxin; type: functional, cell-based
# Mus musculus [42] = assay: Induction of leukocyte recruitment in C57BL/6 mouse assessed as increase in number of macrophages in peritoneal cavity at 40 ug, ip tid 4 hr before pretreated with 3% thioglycollate relative to NaCl treated control; type: functional, organism-based
# Neutrophil [43] = assay: Induction of […]-induced migration in human neutrophils preincubated at 10 uM after 45 mins by chemotaxis assay; type: functional, cell-based
molecule,measurement,setting,value
H-SSLSKL-OH,Activity,Neutrophil [1],inactive
same,Activity,Neutrophil [2],inactive
same,Activity,Neutrophil [3],tde
same,Activity,Neutrophil [4],Active
same,Activity,Neutrophil [5],inactive
same,Activity,Neutrophil [6],Active
same,Activity,Neutrophil [7],Active
same,Activity,[8],Active
same,Activity,[9],Active
same,Activity,[10],Active
same,Activity,HEK293 [11],inactive
same,Activity,[12],Dose-dependent effect
same,EC50,[13],7.5 µM
same,Activity,[14],Dose-dependent effect
same,EC50,[15],9 µM
same,Activity,HEK293 [16],inactive
same,Activity,[17],inactive
same,Activity,[18],Active
same,Activity,Mus musculus [19],Active
same,Activity,Mus musculus [20],Active
same,Activity,Mus musculus [21],Active
same,Activity,Mus musculus [22],Active
same,Activity,Mus musculus [23],inactive
same,Activity,Mus musculus [24],inactive
same,Activity,Mus musculus [25],inactive
same,Activity,Mus musculus [26],inactive
same,Activity,Mus musculus [27],inactive
same,MIC,Escherichia coli [28],> 100 µM
same,MIC,Staphylococcus aureus,> 100 µM
same,Activity,[29],Non-toxic
same,Activity,Escherichia coli [30],Non-toxic
same,Activity,Neutrophil [31],Active
same,Activity,Monocyte [32],Active
same,Activity,T-cell [33],Active
same,Activity,Neutrophil [34],Active
same,Activity,Monocyte [35],Active
same,Activity,Neutrophil [36],inactive
same,Activity,Monocyte [37],inactive
same,Activity,T-cell [38],inactive
same,Activity,Neutrophil [39],inactive
same,Activity,Monocyte [40],inactive
same,Activity,Neutrophil [41],inactive
same,Activity,Mus musculus [42],inactive
CSCC[C@H](NC=O)C(=O)N[C@@H](CC(C)C)C(=O)N[C@@H](Cc1ccccc1)C(=O)O,Activity,Neutrophil [43],inactive
same,Activity,[17],inactive
same,Activity,[18],Active
